# Test results taken from US4469701A, “Pyrrolid-3-en-2-ones and pharmaceutical methods of use thereof” (Stauffer Chemical Company, priority 1983, dated 1984).
# Tests used:
# [1] = tested on: spontaneously hypertensive rats (SHR); assay: Antihypertensive: blood pressure (tail cuff) in spontaneously hypertensive rats (SHR); type: in vivo, rat; conditions: Rattus norvegicus; 6 hr. after a 100 mg/kg oral dose; significance >10; read-out: Antihypertensive: percent decrease in systolic blood pressure in spontaneously hypertensive rats
# Method: Blood pressure was measured indirectly (tail cuff) in unanesthetized, unheated spontaneously hypertensive rats (SHR) before and 2, 4, and 6 hours after p.o. dosing. Reduction in mean pressure by more than 10% (>10) at any two consecutive measurement times after dosing indicates antihypertensive activity.
# rats [2] = assay: Bradycardia: heart rate by EKG in rats; type: in vivo, rat
# Method: […] Decrease in heart rate by more than 10% (>10) is considered a bradycardic effect.
# Percent decrease in heart rate 45 min. after a 5
# mg/kg oral dose in rats.
# mice = assay: Antiarrhythmic: chloroform-induced cardiac arrhythmia in mice; type: in vivo, mouse; conditions: 15 min. after a 200 mg/kg intraperitoneal dose; significance <2
# Method: ^2 A = Antiarrythmic. Less than 2/3 mouse hearts fibrillating 15 min.
# [3] = tested on: hypercholesterolemic mice; assay: Hypocholesterolemic: serum cholesterol in hypercholesterolemic mice; type: in vivo, mouse
# Method: Mice made hypercholesterolemic by being fed a high cholesterol-cholic acid diet for 7 days were dosed on the sixth and seventh days, p.o. After fasting overnight, reduction in serum cholesterol concentration by more than 15% (>15) from hypercholesterolemic control mice indicates activity.
# ^4 C = Hypocholesterolemic. Percent decrease in serum cholesterol in
# hypercholesterolemic mice given 2 oral doses of 200 mg/kg drug candidate
# rats [4] = assay: Antiulcer: stress induced gastric ulcers in rats; type: in vivo, rat
# Method: Fasted rats were dosed, p.o., 30 minutes before immobilization in wire mesh and partial immersion in water for 4 hours. Inhibition of the resulting stress induced gastric ulcers by more than 60% (>60) indicates activity.
# ^6 U = Antiulcerative. Percent inhibition of stress ulcers 4 hr.
# following a 50 mg/kg oral dose in rats.
# [5] = tested on: hypercholesterolemic mice; assay: HP-betalipoprotein: serum heparin precipitating lipoprotein (HPL); type: in vivo, mouse; conditions: 200 and 400 mg/kg, p.o.
# Excerpt: Reduction of serum heparin precipitating lipoprotein (HPL) concentrations (corresponding to low density lipoprotein and very low density lipoprotein fractions) in the same hypercholesterolemic mice from Test 6 above by more than 20% (>20) from control animals indicates activity.
# [6] = Anticholinergic properties (overall statement); conditions: in vivo
# Estrogenic effects = conditions: in vivo
compound,measurement,setting,value
CC1(C)CCCC(C)(C)N1CC1=CC(=O)N(c2cc(C(F)(F)F)ccc2Cl)C1 [Compound 10],inhibition in vivo at 100 mg/kg,[1],15%
same,inhibition in vivo at 5 mg/kg,"rats [2]; Rattus norvegicus, 0.75 h, 45 min. after a 5 mg/kg oral dose in rats, significance >10, read-out: B = Bradycardiac: percent decrease in heart rate",1%
same,"Bradycardic effects, in words","rats [2]; rat, in vivo",No
same,A = Antiarrythmic: mouse hearts fibrillating (of 3),mice,3
same,"Serum cholesterol, in words","[3]; 200 and 400 mg/kg, p.o.",Marked reductions
same,inhibition in vivo at 200 mg/kg,"[3]; Mus musculus, hypercholesterolemic mice, 2 oral doses of 200 mg/kg 20 hr. apart, significance >20, read-out: C = Hypocholesterolemic: percent decrease in serum cholesterol",46%
same,"Protection from stress-induced gastric ulcers, in words","rats [4]; 50 mg/kg, p.o., rats",partially protected
same,inhibition in vivo at 50 mg/kg,"rats [4]; Rattus norvegicus, 4 hr. following a 50 mg/kg oral dose in rats, significance >60, read-out: U = Antiulcerative: percent inhibition of stress ulcers",75%
same,HPL/cholesterol ratio,[5],large reductions
same,"Heparin precipitating lipoproteins (HPL), in words",[5],Marked reductions
same,Anticholinergic properties/effects,[6],absence of evidence of anticholinergic effects
same,Estrogenic effects,Estrogenic effects,No estrogenic effects
